Experimental data published in ChEMBL document CHEMBL1201862, “PubChem BioAssay data set” (2004).
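Cultured in 96-well plates, cells were exposed to test compound for 48 hours across five concentrations. At the GI50, growth is halved.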 The source made the active and inactive calls. Cut-off read from the data, not from the text of the source: active = GI50 up to about 1.1 µM and inactive = higher.

Assays:
Assay in all cases: inhibition of tumour cell growth, NCI panel, 48 h
786-0 = system: 786-0
RXF 393 = system: RXF 393
HT-29 = system: HT-29
CCRF-CEM = system: CCRF-CEM
SNB-19 = system: SNB-19
UACC-62 = system: UACC-62
SK-MEL-28 = system: SK-MEL-28
DU-145 = system: DU-145
PC-3 = system: PC-3
HOP-62 = system: HOP-62
OVCAR-5 = system: OVCAR-5
OVCAR-4 = system: OVCAR-4
MDA-MB-435 = system: MDA-MB-435
KM12 = system: KM12
Malme-3M = system: Malme-3M
HL-60 = system: HL-60
EKVX = system: EKVX
IGROV-1 = system: IGROV-1
Hs-578T = system: Hs-578T
T47D = system: T47D
MOLT-4 = system: MOLT-4
SK-MEL-2 = system: SK-MEL-2
CAKI-1 = system: CAKI-1
NCI-H226 = system: NCI-H226
SW-620 = system: SW-620
COLO 205 = system: COLO 205
OVCAR-8 = system: OVCAR-8
NCI-H23 = system: NCI-H23
MDA-N = system: MDA-N
SF-539 = system: SF-539
NCI-H460 = system: NCI-H460
SF-295 = system: SF-295
UACC-257 = system: UACC-257
ACHN = system: ACHN
U-251 = system: U-251
MCF7 = system: MCF7
K562 = system: K562
HOP-92 = system: HOP-92
SK-OV-3 = system: SK-OV-3
SN12C = system: SN12C
A549 = system: A549
TK-10 = system: TK-10
SK-MEL-5 = system: SK-MEL-5
LOX IMVI = system: LOX IMVI
SR = system: SR
M14 = system: M14
A498 = system: A498
OVCAR-3 = system: OVCAR-3
BT-549 = system: BT-549
SF-268 = system: SF-268
MDA-MB-231 = system: MDA-MB-231
NCI/ADR-RES = system: NCI/ADR-RES
HCT-15 = system: HCT-15
RPMI-8226 = system: RPMI-8226
HCT-116 = system: HCT-116
NCI-H522 = system: NCI-H522
SNB-75 = system: SNB-75
HCC 2998 = system: HCC 2998
UO-31 = system: UO-31

Measured: GI50

O=C(O)c1ccc(SSc2ccc(C(=O)O)cn2)nc1
inactive: 786-0 > 100 µM | RXF 393 > 100 µM | HT-29 > 100 µM | CCRF-CEM > 100 µM | SNB-19 > 100 µM | UACC-62 > 100 µM | SK-MEL-28 > 100 µM | DU-145 > 100 µM | PC-3 > 100 µM | HOP-62 > 100 µM | OVCAR-5 > 100 µM | OVCAR-4 > 100 µM | MDA-MB-435 > 100 µM | KM12 > 100 µM | Malme-3M > 100 µM | HL-60 > 100 µM | EKVX > 100 µM | IGROV-1 > 100 µM | Hs-578T > 100 µM | T47D > 100 µM | MOLT-4 > 100 µM | SK-MEL-2 > 100 µM | CAKI-1 > 100 µM | NCI-H226 72.3 µM | SW-620 > 100 µM | COLO 205 > 100 µM | OVCAR-8 > 100 µM | NCI-H23 > 100 µM | MDA-N > 100 µM | SF-539 > 100 µM | NCI-H460 > 100 µM | SF-295 > 100 µM | UACC-257 > 100 µM | ACHN > 100 µM | U-251 > 100 µM | MCF7 > 100 µM | K562 > 100 µM | HOP-92 > 100 µM | SK-OV-3 > 100 µM | SN12C > 100 µM | A549 > 100 µM | TK-10 > 100 µM | SK-MEL-5 > 100 µM | LOX IMVI > 100 µM | SR > 100 µM | M14 > 100 µM | A498 > 100 µM | OVCAR-3 > 100 µM | BT-549 > 100 µM | SF-268 > 100 µM | MDA-MB-231 > 100 µM | NCI/ADR-RES > 100 µM | RPMI-8226 > 100 µM | HCT-116 > 100 µM | NCI-H522 > 100 µM | SNB-75 > 100 µM
> 100 µM: HCT-15

CCOC(=O)c1ccc(Nc2nc3cc(C(F)(F)F)ccc3nc2-c2ccccc2)cc1
> 100 µM: HCT-15
inactive: 786-0 18.7 µM | RXF 393 21.4 µM | HT-29 > 10 µM | CCRF-CEM 43.3 µM | SNB-19 29.2 µM | UACC-62 11.1 µM | SK-MEL-28 > 100 µM | DU-145 > 100 µM | PC-3 22.2 µM | HOP-62 20.9 µM | OVCAR-5 30.1 µM | MDA-MB-435 69.3 µM | KM12 28.4 µM | Malme-3M > 100 µM | HL-60 50.2 µM | EKVX 49.8 µM | IGROV-1 36.1 µM | Hs-578T 36.1 µM | T47D 35.7 µM | MOLT-4 > 10 µM | CAKI-1 42.9 µM | NCI-H226 > 100 µM | SW-620 63.2 µM | COLO 205 42.7 µM | OVCAR-8 31.3 µM | NCI-H23 40.3 µM | MDA-N > 100 µM | SF-539 65.5 µM | NCI-H460 45.7 µM | SF-295 26.7 µM | UACC-257 > 100 µM | ACHN 17.7 µM | U-251 21.9 µM | MCF7 19.8 µM | K562 > 100 µM | HCC 2998 22.8 µM | SN12C 86.1 µM | A549 > 100 µM | TK-10 > 10 µM | SK-MEL-5 65 µM | LOX IMVI > 100 µM | SR > 100 µM | UO-31 > 100 µM | OVCAR-3 53.6 µM | BT-549 > 100 µM | SF-268 > 100 µM | MDA-MB-231 79.6 µM | NCI/ADR-RES 70.5 µM | RPMI-8226 > 100 µM | HCT-116 67.6 µM | NCI-H522 37.6 µM | SNB-75 13.5 µM
